Laboratory results: ChEMBL document CHEMBL4831524, “AZD0284, a Potent, Selective, and Orally Bioavailable Inverse Agonist of Retinoic Acid Receptor-Related Orphan Receptor C2” (J Med Chem, 2021)

How the values were obtained:
[1] = Apparent permeability across basolateral to apical side in human Caco-2 cells; assay type: ADME, cell-based
[2] = Fraction absorbed in Beagle dog at 3 mg/kg, po using amorphous form of sample; assay type: ADME, organism-based, Canis lupus familiaris; conditions: in vivo, read-out: Fabs
[3] = Metabolic stability in mouse hepatocytes assessed as intrinsic clearance measured per 10^6 cells; assay type: ADME, cell-based, Hepatocyte; conditions: read-out: CLH
[4] = Oral bioavailability in Han Wistar rat at 50 mg/kg using EtOH form of sample; assay type: ADME, organism-based; conditions: in vivo
[5] = Renal clearance in Han Wistar rat at 0.5 mg/kg, iv; assay type: ADME, organism-based, Kidney; conditions: in vivo
[6] = Oral bioavailability in Beagle dog at 10 mg/kg using crystaline form of sample; assay type: ADME, organism-based, Canis lupus familiaris; conditions: in vivo
[7] = system: MDR1; experiment: Apparent permeability across basolateral to apical side in dog MDCK-MDR1 cells; assay type: ADME, cell-based, Canis lupus familiaris
[8] = Oral bioavailability in Beagle dog at 3 mg/kg using amorphous form of sample; assay type: ADME, organism-based, Canis lupus familiaris; conditions: in vivo
[9] = Fraction absorbed in Beagle dog at 10 mg/kg, po using crystaline form of sample; assay type: ADME, organism-based, Canis lupus familiaris; conditions: in vivo, read-out: Fabs
[10] = Fraction absorbed in Han Wistar rat at 1 mg/kg, po using amorphous form of sample; assay type: ADME, organism-based; conditions: in vivo, read-out: Fabs
[11] = Oral bioavailability in C57BL/6 mouse at 2 mg/kg using amorphous form of sample; assay type: ADME, organism-based; conditions: in vivo
[12] = Half life in Beagle dog at 1 mg/kg, iv; assay type: ADME, organism-based, Canis lupus familiaris; conditions: in vivo
[13] = Fraction absorbed in Han Wistar rat at 50 mg/kg, po using EtOH form of sample; assay type: ADME, organism-based; conditions: in vivo, read-out: Fabs
[14] = Plasma protein binding in mouse assessed as unbound fraction by equilibrium dialysis; assay type: ADME, cell-free
[15] = in vitro; conditions: human, liver microsomes
[16] = physchem; conditions: 1-octanol/phosphate buffered saline, pH 7.4
[17] = Volume of distribution at steady state in C57BL/6 mouse at 1 mg/kg, iv; assay type: ADME, organism-based; conditions: in vivo, read-out: Vdss
[18] = Fraction absorbed in Han Wistar rat at 50 mg/kg, po using crystaline form of sample; assay type: ADME, organism-based; conditions: in vivo, read-out: Fabs
[19] = Half life in C57BL/6 mouse at 1 mg/kg, iv; assay type: ADME, organism-based; conditions: in vivo
[20] = Plasma protein binding in rat assessed as unbound fraction by equilibrium dialysis; assay type: ADME, cell-free
[21] = Total plasma clearance in C57BL/6 mouse at 1 mg/kg, iv; assay type: ADME, organism-based
[22] = Volume of distribution at steady state in Beagle dog at 1 mg/kg, iv; assay type: ADME, organism-based, Canis lupus familiaris; conditions: in vivo, read-out: Vdss
[23] = Oral bioavailability in Han Wistar rat at 1 mg/kg using amorphous form of sample; assay type: ADME, organism-based; conditions: in vivo
[24] = Biliary clearance in Han Wistar rat at 1 mg/kg, iv; assay type: ADME, organism-based, Bile; conditions: in vivo
[25] = Half life in Han Wistar rat at 0.5 mg/kg, iv; assay type: ADME, organism-based; conditions: in vivo
[26] = species: Mus musculus; experiment: animal or person; conditions: C57BL/6NCrl, sc, 168 h, read-out: INH
[27] = Metabolic stability in dog hepatocytes assessed as intrinsic clearance measured per 10^6 cells; assay type: ADME, cell-based, Canis lupus familiaris, Hepatocyte; conditions: read-out: CLH
[28] = Total plasma clearance in Beagle dog at 1 mg/kg, iv; assay type: ADME, organism-based, Canis lupus familiaris
[29] = Fraction absorbed in C57BL/6 mouse at 2 mg/kg, po using amorphous form of sample; assay type: ADME, organism-based; conditions: in vivo, read-out: Fabs
[30] = species: Mus musculus; experiment: animal or person; conditions: C57BL/6NCrl, sc, 168 h, read-out: INH; remark: listed apart in the source
[31] = Plasma protein binding in dog assessed as unbound fraction by equilibrium dialysis; assay type: ADME, cell-free, Canis lupus familiaris
[32] = Oral bioavailability in Han Wistar rat at 50 mg/kg using crystaline form of sample; assay type: ADME, organism-based; conditions: in vivo
[33] = Volume of distribution at steady state in Han Wistar rat at 0.5 mg/kg, iv; assay type: ADME, organism-based; conditions: in vivo, read-out: Vdss
[34] = system: MDR1; experiment: Apparent permeability across apical to basolateral side in dog MDCK-MDR1 cells; assay type: ADME, cell-based, Canis lupus familiaris
[35] = Total plasma clearance in Han Wistar rat at 1 mg/kg, iv; assay type: ADME, organism-based

`CC(=O)N1Cc2cc(S(C)(=O)=O)ccc2[C@@H]1C(=O)Nc1ccc(C(O)(C(F)(F)F)C(F)(F)F)cc1` showed a Papp B→A [1] of 16 ×10⁻⁶ cm/s, a Fa [2] of 99% and a hepatocyte CLint [3] of 2.3 µL/min/1e6 cells. It also gave a bioavailability [4] of 35%, a CL renal [5] of 2.9 mL/min/kg and a bioavailability [6] of 50%. For the same compound, the Papp B→A [7] was 16 ×10⁻⁶ cm/s, the bioavailability [8] was 97% and the Fa [9] was 52%. The Fa [10] was 41%, the bioavailability [11] was 67% and the half-life [12] was 16.6 h. For the same compound, the Fa [13] was 42%, the fraction unbound [14] was 0.21 and the microsomal CLint [15] was < 3 µL/min/mg. For the same compound, the logD [16] was 2.4, the Vd [17] was 1.3 L/kg and the Fa [18] was 6%. It also gave a half-life [19] of 2.7 h, a fraction unbound [20] of 0.23 and a clearance [21] of 10.5 mL/min/kg. The Vd [22] was 1.9 L/kg, the bioavailability [23] was 34% and the CL [24] was 0.4 mL/min/kg. For the same compound, the half-life [25] was 3.3 h, the inhibition in vivo at 50 mg/kg [26] was 65% and the hepatocyte CLint [27] was < 1 µL/min/1e6 cells. It also gave a clearance [28] of 1.9 mL/min/kg, a Fa [29] of 71% and an inhibition in vivo at 15 mg/kg [30] of 67%. The fraction unbound [31] was 0.12, the bioavailability [32] was 5% and the Vd [33] was 2.5 L/kg. It also gave a Papp A→B [34] of 0.9 ×10⁻⁶ cm/s and a clearance [35] of 12.4 mL/min/kg.
